Experimental data published in paper PMC8850458, “The AUTOTAC chemical biology platform for targeted protein degradation via the autophagy-lysosome system” (Nature Communications, 2022).
“And” between values parts separate entries of the source, which are not always exact repeats. Identical values can stand only once. Like-named read-outs stand apart in the source and are kept apart here.

Tests used:
p62 = target: T1, p62 (Homo sapiens, UniProt Q13501); experiment: In vitro p62 oligomerization assay; format: biochemical; conditions: HEK293T lysate
T1 construct: expressed in transfected cells; host or cells: HEK293T, transient; whole lysate used
Procedure: HEK293T cells were transiently transfected with a plasmid encoding p62-myc/his fusion proteins. Cells were resuspended in lysis buffer [50 mM HEPES (pH 7.4), 0.15 M KCl, 0.1% Nonidet P-40), 10% glycerol, containing a mixture of protease inhibitors and phosphatase inhibitor (Abcam)]. To lyse the cells, 10 cycles of freezing and thawing was done, followed by centrifugation at 13,000 × g for 20 min at 4 °C. Using a BCA assay, the protein concentration of the supernatant was measured. A total of 1 μg of protein was incubated with 1 mM of p62-ZZ ligands in the presence of 100 μM bestatin (Enzo) at room temperature for 2 h. After incubation, each sample was mixed with non-reducing 4X LDS sample buffer, heated at 95 °C for 10 min, and resolved using 4–20% gradient SDS-PAGE (Bio-Rad). To monitor the conversion of p62 monomers into oligomers or aggregates, IB assay was performed using anti-myc antibody.

Ub^+ and p62^+ puncta = experiment: ICC of Ub (FK2) and p62 puncta in HeLa cells; format: cell-based; conditions: 1 μM 24 h, autophagy inhibition (HCQ)
Procedure: Fig. 4 Targeted autophagic delivery and degradation of misfolded protein cargoes using AUTOTACs with aggregate-binding warhead. a A model illustrating the mode of action of aggregate-targeting AUTOTAC. b Chemical structures of PBA-1105, PBA-1106, Anle138b-F105 and PBA-1105b. c In vitro p62 oligomerization assay in HEK293T cells incubated with the indicated compounds in (b). d WB in HEK293T cells treated with MG132 (1 μM, 24 h), HCQ (10 μM, 24 h), PBA-1105, YTK-1105, and PBA (1 μM, 24 h). e Identical to (d), but with Anle-F105. f ICC of HeLa cells treated with HCQ (10 μM, 24 h), MG132 (2 μM, 18 h) or both in the presence of PBA-1106, YOK-1106 or PBA (1 μM, 24 h). Scale bar, 10 μm. g Quantification of (f) (n = 3, 50 cells). h ICC of HeLa cells treated with Anle138b-F105 (1 μM, 24 h). Scale bar, 10 μm. i Quantification of (h) (n = 3, 50 cells). When indicated, n = 3 biologically independent experiments each counting 50 cells. Data are presented as mean values ± SD where relevant. P-values (from a two-sided unpaired t test): ***P < 7.66E−05. Source data are provided with this paper.
(§1) Cells were cultured on coverslips coated with poly-L-lysine (Sigma) to observe cellular localization of proteins. Using 4% paraformaldehyde in PBS (pH 7.4), the cells were fixed for 15 min at room temperature and washed three times for 5 min with PBS. After fixing, the cells were permeabilized with 0.5% Triton X-100 in PBS solution for 15 min and washed three times with PBS for 5 min. The cells were blocked containing 2% BSA in PBS solution for 1 h at room temperature. Subsequently, the cells were incubated with primary antibody diluted in 2% BSA/PBS solution overnight at 4 °C, followed by washing the cells three times for 10 min with PBS and incubated with Alexa Fluor-conjugated secondary antibody diluted in 2% BSA/PBS for 30 min at room temperature. Using a DAPI-containing mounting medium (Vector Laboratories), the coverslips were mounted on glass slides. Confocal images were taken by laser scanning confocal microscope 510 Meta (Zeiss) and analyzed by Zeiss LSM Image Browser (ver. 4.2.0.121). […] Quantification results are shown as mean ± S.D. or S.E.M. of three independent experiments

tauP301L = tauP301L (Homo sapiens, UniProt P10636, P618L); experiment: WB degradation of tauP301L in SH-SY5Y-tauP301L cells; format: cell-based; conditions: SH-SY5Y-tauP301L cells
Procedure: (§2) Adherent cells were washed with phosphate-buffered saline (PBS) and cell pellets were lysed in SDS-based sample buffer (277.8 mM Tris-HCI, pH 6.8, 4.4% LDS, 44.4% (v/v) glycerol) containing beta-mercaptoethanol. Alternatively, cell pellets or protein supernatants were lysed in 5X Laemmli sample buffer. Whole-cell lysates were separated using SDS-PAGE, and transferred onto polyvinyllidene difluoride membranes at 100 V for 2 h at 4 °C. The membrane was incubated with a blocking solution consisting 4% skim milk in PBS solution for 30 min at room temperature and incubated with primary antibodies overnight, followed by incubation with host-specific HRP-conjugated secondary antibodies (1:10000 dilution). For signal detection, the membrane was developed with a mixture of ECL solution (Thermo Fisher Scientific) using X-ray films. Densitometry of developed bands was measured and analyzed with ImageJ (NIH, Bethesda).

[1] = test system: p62 and LC3 punctate structures; experiment: ICC of p62 and LC3 puncta formation and co-localization in HeLa cells; format: cell-based; conditions: 2.5 μM, 24 h
Procedure: as §1

[2] = test system: p62-positive and WIPI2-positive punctate structures; experiment: ICC of WIPI2-p62 co-localization in HeLa cells; format: cell-based; conditions: HeLa expressing WIPI2-GFP, 2.5 μM, 6 h
Procedure: as §1
Supplementary Fig. 2. Characterization of p62-ZZ ligands (a, c, e) 3-D modeling of p62 […]
μM, 6 h). (m) Quantification of l for co-localization (n=3, 50 cells). Scale bar, 10 µm. (n) […]

[3] = test system: autophagic turnover of p62 and LC3; experiment: Autophagic flux assay in HeLa cells with or without HCQ; format: cell-based; conditions: 2.5 μM, 24 h, with or without HCQ 10 µM 24 h
Procedure: Fig. 1 Nt-Arg-mimicking p62-ZZ ligands activate p62-dependent selective macroautophagy. a A model illustrating the mode of action of autophagy-targeting ligands. b Chemical structures of autophagy-targeting ligands. c In vitro pulldown assay in HEK293T cells of the 12-mer V-BiP peptide or autophagy-targeting ligands. d In vitro p62 oligomerization assay in HEK293T cells incubated with the p62-ZZ ligands in (b). e ICC of HeLa cells treated with p62-ZZ ligands in (b) (2.5 μM, 24 h). Scale bar, 10 μm. f, g Quantification of (e) for puncta formation and co-localization, respectively (n = 3 biologically independent experiments each counting 50 cells). h A schematic/formulae for autophagy flux index. i Autophagic flux assay in HeLa cells treated with YOK-1304 or YTK-105 (2.5 μM, 24 h) in the presence or absence of HCQ (10 µM, 24 h). Data are presented as mean values ± SD where relevant. P-values (from a two-sided unpaired t test): ***P < 0.000956 (for p62 punctate formation), ***P < 0.000539 (for LC3 punctate formation), ***P < 0.000925 (for p62-LC3 co-localization). Source data are provided with this paper. TEXT PRINTED IN THE PICTURE: (i) YOK 1304: Normalized p62 A.F. index: 2.8; Normalized LC3 II/I A.F. index: 4.2 | (i) YTK 105: Normalized p62 A.F. index: 4.6; Normalized LC3 II/I A.F. index: 11.2
as §2

[4] = WST-based cell viability assay in ACHN cells; conditions: human, ACHN cells; for viability at 0.01 µM / viability at 0.1 µM / viability at 1 µM / viability at 10 µM / viability at 50 µM / viability at 100 µM: ACHN
ACHN cells [5] = experiment: WST-based cell viability assay in ACHN cells; conditions: ACHN, duplicates
ACHN cells [6] = experiment: Wound healing assay in ACHN cells; format: cell-based; design: wound area / wound area, Average: unit not given here; conditions: ACHN, 5 μM; for wound area: N=1, N=2
Procedure: To analyze cell migration in two dimensions, U-87 MG or ACHN cells were plated to a monolayer. Cells were scratched with a sterile 10 μl pipette tip and the debris was removed using medium. Cells were treated with compounds and incubated for different time to monitor cell behavior. Photographs were obtained using a microscope at different time point.

[7] = duplicates, read-out: WST assay viability relative to con = 100
[8] = read-out: WST assay viability, AVG %

Chain of tauP301L (P10636 1-441 isoform P10636-8 P301L): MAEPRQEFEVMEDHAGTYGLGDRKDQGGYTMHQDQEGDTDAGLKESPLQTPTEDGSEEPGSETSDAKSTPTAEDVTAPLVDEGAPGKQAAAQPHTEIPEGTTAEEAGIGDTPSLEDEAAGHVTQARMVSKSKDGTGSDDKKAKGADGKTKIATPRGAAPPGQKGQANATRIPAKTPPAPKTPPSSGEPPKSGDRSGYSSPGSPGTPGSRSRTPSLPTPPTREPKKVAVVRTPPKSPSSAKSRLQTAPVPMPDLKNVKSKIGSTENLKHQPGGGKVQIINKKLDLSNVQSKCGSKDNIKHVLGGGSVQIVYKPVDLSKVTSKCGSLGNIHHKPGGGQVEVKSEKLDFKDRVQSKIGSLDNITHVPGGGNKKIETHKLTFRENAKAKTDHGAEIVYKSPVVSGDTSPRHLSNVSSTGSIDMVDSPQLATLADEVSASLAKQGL
T1 sequence (Q13501 whole entry): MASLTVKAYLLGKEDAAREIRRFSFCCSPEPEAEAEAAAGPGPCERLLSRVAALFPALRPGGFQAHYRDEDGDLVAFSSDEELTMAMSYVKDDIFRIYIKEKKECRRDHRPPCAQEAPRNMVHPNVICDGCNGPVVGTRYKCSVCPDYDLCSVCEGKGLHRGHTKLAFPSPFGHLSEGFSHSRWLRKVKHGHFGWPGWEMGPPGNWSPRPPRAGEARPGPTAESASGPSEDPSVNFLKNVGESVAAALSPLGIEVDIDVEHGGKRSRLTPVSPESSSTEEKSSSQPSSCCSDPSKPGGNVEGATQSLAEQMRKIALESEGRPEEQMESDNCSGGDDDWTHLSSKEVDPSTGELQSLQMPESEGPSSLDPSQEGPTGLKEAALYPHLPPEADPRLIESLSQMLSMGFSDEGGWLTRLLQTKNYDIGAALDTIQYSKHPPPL

In the case of `O=C(CCCc1ccccc1)NCCOCCOCCOCCNC[C@@H](O)COc1ccc(OCc2ccccc2)c(OCc2ccccc2)c1` [PBA-1106], the p62 self-oligomerization (p62) is reported as “triggered its self-oligomerization”, the “p62 puncta structures (per cell)” value (Ub^+ and p62^+ puncta) is reported as 14 ± 4.2 and the DC50 (tauP301L) is reported as 1 to 10 nM. The “Dmax,24 hr of tauP301L degradation” value (tauP301L) was 100 nM.

In the case of `CC(C)NCC(O)COc1ccc(OCc2ccccc2)c(OCCCc2ccccc2)c1` (centres unmarked) [YOK-1304], the “LC3 puncta formation, AVG of cells of 50” value [1] is reported as 38.6667, the “LC3 puncta formation, percentage AVG” value [1] is reported as 77.3333% and the “p62-LC3 colocalization, AVG of cells of 50” value [1] is reported as 37. For the same compound, the “p62-LC3 colocalization, percentage AVG” value [1] was 74%, the “p62 puncta formation, AVG of cells of 50” value [1] was 40.3333 and the “p62 puncta formation, percentage AVG” value [1] was 80.6667%. The “LC3 puncta formation, cells of 50 cells counted” value ([1]; single experiments) was 29 and 49 and 38, the “p62-LC3 colocalization, cells of 50 cells counted” value ([1]; single experiments) was 36 and 39 and the “p62 puncta formation, cells of 50 cells counted” value ([1]; single experiments) was 46 and 36 and 39. The “WIPI2-GFP-p62 colocalization, AVG of cells of 50” value [2] was 30.6667, the “WIPI2-GFP-p62 colocalization, percentage AVG” value [2] was 61.3333% and the “WIPI2-GFP-p62 colocalization, cells of 50 cells counted” value ([2]; single experiments) was 28 and 23 and 41. For the same compound, the “Normalized LC3 II/I A.F. index” value [3] was 4.2, the “Normalized p62 A.F. index” value [3] was 2.8 and the viability at 0.01 µM [4, 7] was 96.5%. The viability at 0.01 µM [4, 8] was 96%, the viability at 0.1 µM [4, 7] was 110% and the viability at 0.1 µM [4, 8] was 106%. For the same compound, the viability at 1 µM [4, 7] was 104%, the viability at 1 µM [4, 8] was 102% and the viability at 10 µM [4, 7] was 101%. The viability at 10 µM [4, 8] was 102%, the viability at 50 µM [4, 7] was 118% and the viability at 50 µM [4, 8] was 113%. For the same compound, the viability at 100 µM [4, 7] was 64.9%, the viability at 100 µM [4, 8] was 67.1% and the IC50 ([4]; WST-based viability assay, read-out: cytotoxicity IC50) was > 20000 nM. For the same compound, the “WST assay raw reading” value (ACHN cells [5]; 0.01uM) was 0.964 and 0.955, the “WST assay viability relative to con = 100” value (ACHN cells [5]; 0.01uM) was 95.4624 and the “WST assay raw reading” value (ACHN cells [5]; 0.1uM) was 1.085 and 1.014. For the same compound, the “WST assay raw reading” value (ACHN cells [5]; 1uM) was 1.025 and 0.998, the “WST assay viability relative to con = 100” value (ACHN cells [5]; 1uM) was 100.423 and the “WST assay raw reading” value (ACHN cells [5]; 10uM) was 1.004 and 1.024. For the same compound, the “WST assay viability relative to con = 100” value (ACHN cells [5]; 10uM) was 103.422, the “WST assay raw reading” value (ACHN cells [5]; 50uM) was 1.153 and 1.063 and the “WST assay viability relative to con = 100” value (ACHN cells [5]; 50uM) was 107.922. For the same compound, the “WST assay raw reading” value (ACHN cells [5]; 100uM) was 0.69 and 0.729, the “WST assay viability relative to con = 100” value (ACHN cells [5]; 100uM) was 69.3905 and the “wound area, Average” value (ACHN cells [6]; 0h) was 2209762. For the same compound, the “wound area, Average %” value (ACHN cells [6]; 0h) was 0%, the wound area (ACHN cells [6]; 0h) was 2287288 and 2132236 and the “wound area, Average” value (ACHN cells [6]; 4h) was 1966032. The “wound area, Average %” value (ACHN cells [6]; 4h) was 0%, the wound area (ACHN cells [6]; 4h) was 2073039 and 1859025 and the “wound area, Average” value (ACHN cells [6]; 12h) was 1228896. For the same compound, the “wound area, Average %” value (ACHN cells [6]; 12h) was 0%, the wound area (ACHN cells [6]; 12h) was 1307559 and 1150234 and the “wound area, Average” value (ACHN cells [6]; 24h) was 122450. The “wound area, Average %” value (ACHN cells [6]; 24h) was 0%.
